Data from US5372816A, “Trehalostatin and process for the preparation thereof” (Suntory Limited, priority 1989, dated 1994).

Assays:
[1] = system: Invertase (bovine colonic mucosa); experiment: Enzyme inhibition spectrum: invertase (bovine colonic mucosa); format: biochemical; set-up: key: ++: ID50 ≤ 1.0 μg; +: ID50 ≥ 1.0 μg; -: no inhibition; conditions: enzyme 5000 μg; pH 6.0, 0.1% sucrose; measuring method A
Experimental: (§1) Each enzyme (200 μl) is incubated with Trehalostatin (0.01-50 μg) in 0.05 M acetate (pH 5-6) or phosphate (pH 6-7) buffer solution at 37° C. for 5 minutes. Then 20 μl of the resulting solution is collected and added with a substrate to a final concentration shown in the Table, making the total volume of the solution 100 μl. The mixture is incubated at 37° C. for 10 minutes and then incubated in a boiling water bath for 3 minutes to terminate the reaction.
(§2) Determination of activity was made by measuring the increase of the product in the reaction system according to the following methods A-C.
(§3) The quantity of Trehalostatin which can effect 50% inhibition of enzyme activity under the above-described conditions was indicated as ID50.
(§4) (A) The glucose produced was determined by the new blood sugar test devised by Boehringer-Mannheim Ltd.

β-amylase (sweet potato) = biological target: T1, β-amylase (sweet potato) (Ipomoea batatas, UniProt P10537); experiment: Enzyme inhibition spectrum: β-amylase (sweet potato); format: biochemical; set-up: key: ++: ID50 ≤ 1.0 μg; +: ID50 ≥ 1.0 μg; -: no inhibition; conditions: enzyme 12.5 μg; pH 5.0, 0.5% starch; measuring method C
T1 construct: purchased Sigma; host or cells: sweet potato
T1 sequence (P10537 whole entry): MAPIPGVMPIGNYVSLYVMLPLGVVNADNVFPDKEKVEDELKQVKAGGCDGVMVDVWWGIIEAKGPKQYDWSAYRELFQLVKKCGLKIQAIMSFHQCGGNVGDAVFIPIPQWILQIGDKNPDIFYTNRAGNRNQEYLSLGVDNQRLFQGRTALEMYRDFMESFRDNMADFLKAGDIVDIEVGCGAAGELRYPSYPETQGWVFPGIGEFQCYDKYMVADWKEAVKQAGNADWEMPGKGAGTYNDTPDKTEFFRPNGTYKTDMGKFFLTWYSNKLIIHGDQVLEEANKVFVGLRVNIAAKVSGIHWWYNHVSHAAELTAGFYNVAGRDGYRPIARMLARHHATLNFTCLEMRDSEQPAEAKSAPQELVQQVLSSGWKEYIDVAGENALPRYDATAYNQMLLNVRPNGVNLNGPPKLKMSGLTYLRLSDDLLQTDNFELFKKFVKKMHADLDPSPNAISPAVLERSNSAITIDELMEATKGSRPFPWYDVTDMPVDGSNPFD
Experimental: as §1, §2, §3
(§5) (C) The increase of an amount of reducing sugar produced was measured according to the method shown in J. A. Thoma et al., The Enzyme, 3rd. ed., Ch. 5, pp. 115-189 (1971).

[2] = system: Trehalase (Aldrichina grahami); experiment: Enzyme inhibition spectrum: trehalase (Aldrichina grahami); format: biochemical
Experimental: 10 μl of an inhibitor solution and 10 μl of a trehalase solution (trehalase collected from Aldrichina grahami) were mixed. After 5 minutes incubation at 37° C., 80 μl of a 5 mM trehalose and 50 mM phosphate buffer solution (pH 6.5) was added, followed by an additional one-hour incubation at 37° C. Thereafter, 10 μl of a 50% trichloroacetic acid solution was added to terminate the reaction. Glucose formed in the reaction solution was determined by a new blood sugar test manufactured by Boehringer-Mannheim Ltd. The amount of the enzyme was such that absorbance of the wavelength ([…]) used in the glucose determination when conducted according to the above method without adding the inhibitor would become 1.0. The Trehalostatin concentration which can achieve 50% inhibition of enzyme (trehalase) activity in the above determination method was expressed as 1 unit/ml.
as §1, with “The mixture is incubated at 37° C. for 10 minutes and then incubated in a boiling water bath for 3 minutes to terminate the reaction.” left out
as §4

exo-β-1,3-glucanase = experiment: Enzyme inhibition spectrum: exo-β-1,3-glucanase; format: biochemical; set-up: key: ++: ID50 ≤ 1.0 μg; +: ID50 ≥ 1.0 μg; -: no inhibition; conditions: enzyme 15 μg; pH 6.0, 0.1% laminarin; measuring method B
Experimental: as §1, §2, §3
(B) An amount of glucose produced was determined according to the method shown in D. R. Barras and B. A. Stone, Biochim. Biophys. Acta, 191, 329 (1969).

[3] = Solubility of Trehalostatin; format: physicochemical
α-glycosidase (yeast) = biological target: T2, α-glycosidase (yeast) (Saccharomyces cerevisiae, UniProt P53341); experiment: Enzyme inhibition spectrum: α-glycosidase (yeast); format: biochemical; conditions: enzyme 1 μg; pH 7.1, 5 mM P-nitrophenyl glycoside; measuring method A
T2 construct: purchased TOYOBO Co., Ltd; host or cells: yeast
T2 sequence (P53341 whole entry): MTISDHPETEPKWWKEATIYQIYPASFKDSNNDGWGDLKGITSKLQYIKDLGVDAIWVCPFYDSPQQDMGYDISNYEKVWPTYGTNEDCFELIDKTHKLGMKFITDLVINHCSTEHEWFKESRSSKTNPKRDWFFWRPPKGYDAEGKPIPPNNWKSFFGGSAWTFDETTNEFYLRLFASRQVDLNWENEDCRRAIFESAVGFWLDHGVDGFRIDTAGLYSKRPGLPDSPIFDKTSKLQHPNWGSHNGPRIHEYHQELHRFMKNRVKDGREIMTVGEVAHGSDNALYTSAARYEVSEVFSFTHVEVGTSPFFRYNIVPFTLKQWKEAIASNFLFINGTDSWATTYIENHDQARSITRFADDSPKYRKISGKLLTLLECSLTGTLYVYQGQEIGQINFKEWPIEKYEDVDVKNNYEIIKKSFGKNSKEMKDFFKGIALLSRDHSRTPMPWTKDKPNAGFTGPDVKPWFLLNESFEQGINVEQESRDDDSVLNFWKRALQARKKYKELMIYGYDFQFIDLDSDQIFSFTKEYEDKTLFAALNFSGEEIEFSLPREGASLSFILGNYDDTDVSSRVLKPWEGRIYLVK
Experimental: as §1, §2, §3, §4

Trehalase (swine kidney) = biological target: T3, Trehalase (swine kidney) (Sus scrofa, UniProt I3LIR5); experiment: Enzyme inhibition spectrum: trehalase (swine kidney); format: biochemical; conditions: enzyme 1.1 unit (nmol glucose/min); pH 6.5, 5 mM trehalase; measuring method A
T3 construct: purchased Sigma M8778; host or cells: swine kidney
T3 sequence (I3LIR5 24-583): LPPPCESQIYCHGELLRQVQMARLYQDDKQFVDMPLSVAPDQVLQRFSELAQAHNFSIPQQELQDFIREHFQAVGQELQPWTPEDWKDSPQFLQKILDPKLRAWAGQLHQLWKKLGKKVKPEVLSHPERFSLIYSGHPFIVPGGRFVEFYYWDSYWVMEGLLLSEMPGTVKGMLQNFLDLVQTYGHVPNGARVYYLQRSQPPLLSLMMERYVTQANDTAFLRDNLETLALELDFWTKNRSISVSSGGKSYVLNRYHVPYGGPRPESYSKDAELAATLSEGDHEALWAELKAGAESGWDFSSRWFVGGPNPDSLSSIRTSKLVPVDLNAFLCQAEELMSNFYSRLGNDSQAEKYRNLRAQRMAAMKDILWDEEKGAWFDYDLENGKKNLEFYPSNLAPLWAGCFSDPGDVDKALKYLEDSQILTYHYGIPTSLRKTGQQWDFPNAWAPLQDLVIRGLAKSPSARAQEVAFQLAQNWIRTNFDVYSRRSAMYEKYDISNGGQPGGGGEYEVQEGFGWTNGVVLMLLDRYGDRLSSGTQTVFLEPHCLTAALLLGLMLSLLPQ
Experimental: as §1, §2, §3, §4

[4] = system: avicelase (Asp. aculeatus); experiment: Enzyme inhibition spectrum: avicelase (Asp. aculeatus); format: biochemical; set-up: key: ++: ID50 ≤ 1.0 μg; +: ID50 ≥ 1.0 μg; -: no inhibition; conditions: enzyme 2000 μg; pH 5.0, 0.5% avicel; measuring method C
Experimental: as §1, §2, §3, §5

[5] = biological target: T4, Trehalase (bovine colonic mucosa) (Bos taurus, UniProt E1B8N4); experiment: Enzyme inhibition spectrum: trehalase (bovine colonic mucosa); format: biochemical; conditions: enzyme 2500 μg; pH 5.5, 5 mM trehalase; measuring method A
T4 construct: mucosal acetone powder Sigma (M2766); purchased Sigma M2766; host or cells: bovine colonic mucosa, acetone powder
T4 sequence (E1B8N4 24-579): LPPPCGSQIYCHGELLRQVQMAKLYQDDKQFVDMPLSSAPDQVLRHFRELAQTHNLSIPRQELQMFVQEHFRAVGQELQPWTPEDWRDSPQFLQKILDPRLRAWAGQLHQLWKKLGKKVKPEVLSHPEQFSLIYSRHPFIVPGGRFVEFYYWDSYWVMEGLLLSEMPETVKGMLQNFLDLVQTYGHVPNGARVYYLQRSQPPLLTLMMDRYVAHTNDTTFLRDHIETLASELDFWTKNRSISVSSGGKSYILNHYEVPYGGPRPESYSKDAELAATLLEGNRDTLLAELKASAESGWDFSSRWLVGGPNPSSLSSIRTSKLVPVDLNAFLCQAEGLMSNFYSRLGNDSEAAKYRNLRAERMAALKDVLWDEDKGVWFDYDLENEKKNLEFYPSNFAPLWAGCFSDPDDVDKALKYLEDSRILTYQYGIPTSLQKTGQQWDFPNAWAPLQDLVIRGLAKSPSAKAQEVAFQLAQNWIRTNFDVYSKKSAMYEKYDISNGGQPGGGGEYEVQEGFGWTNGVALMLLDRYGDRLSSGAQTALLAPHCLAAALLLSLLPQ
Experimental: as §1, §2, §3, §4

[6] = system: Gluco amylase (Rhizopus niveus); experiment: Enzyme inhibition spectrum: Gluco amylase (Rhizopus niveus); format: biochemical; set-up: key: ++: ID50 ≤ 1.0 μg; +: ID50 ≥ 1.0 μg; -: no inhibition; conditions: enzyme 2 μg; pH 5.5, 0.5% starch; measuring method A
Experimental: as §1, §2, §3, §4

[7] = biological target: T5, β-glycosidase (Asp. aculeatus) (Aspergillus aculeatus, UniProt P48825); experiment: Enzyme inhibition spectrum: β-glycosidase (Asp. aculeatus); format: biochemical; conditions: enzyme 15 μg; pH 5.0, 0.5% salicin; measuring method A
T5 construct: a crude enzyme (prepared by University of Osaka Prefecture); host or cells: Aspergillus aculeatus
T5 sequence (P48825 20-860): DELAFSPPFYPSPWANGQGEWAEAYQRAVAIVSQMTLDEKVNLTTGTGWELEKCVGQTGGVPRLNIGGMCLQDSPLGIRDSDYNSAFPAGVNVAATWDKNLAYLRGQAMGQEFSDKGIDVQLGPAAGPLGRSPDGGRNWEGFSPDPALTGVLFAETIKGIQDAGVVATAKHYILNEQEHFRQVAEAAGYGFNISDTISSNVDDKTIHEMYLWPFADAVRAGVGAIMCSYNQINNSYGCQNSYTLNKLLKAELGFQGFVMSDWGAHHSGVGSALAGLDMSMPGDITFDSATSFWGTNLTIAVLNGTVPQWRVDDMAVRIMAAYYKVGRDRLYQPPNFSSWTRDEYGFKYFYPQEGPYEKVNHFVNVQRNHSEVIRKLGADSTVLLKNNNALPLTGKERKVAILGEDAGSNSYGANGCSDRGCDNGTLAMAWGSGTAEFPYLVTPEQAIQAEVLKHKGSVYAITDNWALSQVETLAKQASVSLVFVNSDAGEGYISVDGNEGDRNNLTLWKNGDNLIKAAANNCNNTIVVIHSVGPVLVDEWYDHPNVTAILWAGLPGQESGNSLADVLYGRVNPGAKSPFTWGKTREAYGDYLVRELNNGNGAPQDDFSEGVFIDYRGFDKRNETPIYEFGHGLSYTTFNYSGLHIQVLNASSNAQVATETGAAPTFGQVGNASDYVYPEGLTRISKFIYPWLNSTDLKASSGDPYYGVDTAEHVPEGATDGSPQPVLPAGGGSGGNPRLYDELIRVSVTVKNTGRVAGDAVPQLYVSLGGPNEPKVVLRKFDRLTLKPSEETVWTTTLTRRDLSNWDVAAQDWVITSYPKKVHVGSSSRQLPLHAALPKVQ
Experimental: as §1, §2, §3, §4

[8] = system: Carboxymethyl-cellulase (Asp. aculeatus); experiment: Enzyme inhibition spectrum: carboxymethyl-cellulase (Asp. aculeatus); format: biochemical; set-up: key: ++: ID50 ≤ 1.0 μg; +: ID50 ≥ 1.0 μg; -: no inhibition; conditions: enzyme 100 μg; pH 5.0, 0.5% CM cellulose; measuring method C
Experimental: as §1, §2, §3, §5

[9] = biological target: Bacterial liquefying amylase (Bacillus amyloliquefaciens, UniProt P00692); experiment: Enzyme inhibition spectrum: bacterial liquefying amylase; format: biochemical; set-up: key: ++: ID50 ≤ 1.0 μg; +: ID50 ≥ 1.0 μg; -: no inhibition; conditions: enzyme 0.4 μg; pH 5.0, 0.5% starch; measuring method C
Bacterial liquefying amylase, sequence (P00692 32-514): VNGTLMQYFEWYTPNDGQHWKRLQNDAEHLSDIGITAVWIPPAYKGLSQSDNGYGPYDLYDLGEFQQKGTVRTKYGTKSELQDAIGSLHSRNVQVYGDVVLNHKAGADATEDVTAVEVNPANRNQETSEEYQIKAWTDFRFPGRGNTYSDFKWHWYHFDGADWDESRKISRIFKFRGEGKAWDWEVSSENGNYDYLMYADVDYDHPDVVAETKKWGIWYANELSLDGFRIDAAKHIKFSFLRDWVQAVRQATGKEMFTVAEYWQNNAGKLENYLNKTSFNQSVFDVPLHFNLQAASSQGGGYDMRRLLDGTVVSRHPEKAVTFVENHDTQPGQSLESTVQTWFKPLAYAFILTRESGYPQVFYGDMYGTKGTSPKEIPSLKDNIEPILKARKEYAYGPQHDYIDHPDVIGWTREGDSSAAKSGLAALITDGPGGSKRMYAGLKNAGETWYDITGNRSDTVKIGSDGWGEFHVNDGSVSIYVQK
Experimental: as §1, §2, §3, §5

[10] = system: Trehalase (Chaetomium aureum); experiment: Enzyme inhibition spectrum: trehalase (Chaetomium aureum); format: biochemical; conditions: enzyme 15 μg; pH 5.5, 5 mM trehalase; measuring method A
Experimental: as §1, §2, §3, §4

Taka-amylase A (yeast) = biological target: T6, Taka-amylase A (yeast) (Saccharomyces cerevisiae, UniProt P00724); experiment: Enzyme inhibition spectrum: Taka-amylase A (yeast), sucrose substrate; format: biochemical; set-up: key: ++: ID50 ≤ 1.0 μg; +: ID50 ≥ 1.0 μg; -: no inhibition; conditions: enzyme 100 μg; pH 5.5, 0.1% sucrose; measuring method A
T6 sequence (P00724 20-532): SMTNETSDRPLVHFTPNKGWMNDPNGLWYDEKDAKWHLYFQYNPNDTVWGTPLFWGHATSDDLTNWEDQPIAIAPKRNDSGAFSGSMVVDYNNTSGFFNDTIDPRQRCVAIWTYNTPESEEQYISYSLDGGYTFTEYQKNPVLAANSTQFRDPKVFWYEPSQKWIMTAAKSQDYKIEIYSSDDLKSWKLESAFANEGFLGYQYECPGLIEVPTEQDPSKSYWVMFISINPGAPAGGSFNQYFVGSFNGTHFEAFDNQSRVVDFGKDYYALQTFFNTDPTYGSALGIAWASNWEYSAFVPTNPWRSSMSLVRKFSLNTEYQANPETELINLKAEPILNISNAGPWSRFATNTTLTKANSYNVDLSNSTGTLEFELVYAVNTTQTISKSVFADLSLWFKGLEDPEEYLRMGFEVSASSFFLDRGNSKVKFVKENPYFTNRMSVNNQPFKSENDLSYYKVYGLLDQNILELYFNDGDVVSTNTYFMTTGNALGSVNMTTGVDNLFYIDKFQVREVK
Experimental: as §1, §2, §3, §4

[11] = biological target: Bacterial saccharifying amylase (Bacillus subtilis, UniProt P00691); experiment: Enzyme inhibition spectrum: bacterial saccharifying amylase; format: biochemical; set-up: key: ++: ID50 ≤ 1.0 μg; +: ID50 ≥ 1.0 μg; -: no inhibition; conditions: enzyme 4 μg; pH 5.0, 0.5% starch; measuring method C
Bacterial saccharifying amylase, sequence (P00691 42-659): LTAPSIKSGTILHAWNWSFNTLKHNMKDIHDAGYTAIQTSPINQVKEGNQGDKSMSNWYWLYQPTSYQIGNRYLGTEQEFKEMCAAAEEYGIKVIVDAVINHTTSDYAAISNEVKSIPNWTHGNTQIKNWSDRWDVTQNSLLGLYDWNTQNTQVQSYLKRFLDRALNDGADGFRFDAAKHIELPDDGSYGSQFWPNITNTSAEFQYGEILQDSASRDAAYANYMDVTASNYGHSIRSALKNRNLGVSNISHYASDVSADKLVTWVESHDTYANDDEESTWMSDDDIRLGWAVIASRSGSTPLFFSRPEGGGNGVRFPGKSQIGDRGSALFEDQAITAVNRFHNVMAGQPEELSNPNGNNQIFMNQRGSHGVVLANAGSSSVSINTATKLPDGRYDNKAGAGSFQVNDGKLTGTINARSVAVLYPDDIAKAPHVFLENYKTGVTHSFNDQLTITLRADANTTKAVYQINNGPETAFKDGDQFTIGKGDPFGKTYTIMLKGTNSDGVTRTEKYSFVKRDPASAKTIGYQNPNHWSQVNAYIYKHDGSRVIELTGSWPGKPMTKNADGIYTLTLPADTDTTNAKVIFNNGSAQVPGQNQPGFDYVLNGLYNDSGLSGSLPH
Experimental: as §1, §2, §3, §5

Gluco amylase (almond) = experiment: Enzyme inhibition spectrum: Gluco amylase (almond), salicin substrate; format: biochemical; set-up: key: ++: ID50 ≤ 1.0 μg; +: ID50 ≥ 1.0 μg; -: no inhibition; conditions: enzyme 10 μg; pH 5.0, 0.5% salicin; measuring method A
Experimental: as §1, §2, §3, §4

Taka-amylase A = biological target: T7, Taka-amylase A (Aspergillus oryzae, UniProt P0C1B3); experiment: Enzyme inhibition spectrum: Taka-amylase A, starch substrate; format: biochemical; set-up: key: ++: ID50 ≤ 1.0 μg; +: ID50 ≥ 1.0 μg; -: no inhibition; conditions: enzyme 0.5 μg; pH 5.5, 0.5% starch; measuring method printed 69
T7 construct: purchased SANKYO Co., Ltd
Experimental: as §1, §2, §3

Isoamylase = biological target: T8, Isoamylase (Pseudomonas amyloderamosa, UniProt P10342); experiment: Enzyme inhibition spectrum: isoamylase; format: biochemical; set-up: key: ++: ID50 ≤ 1.0 μg; +: ID50 ≥ 1.0 μg; -: no inhibition; conditions: enzyme 100 μg; pH 5.5, 0.5% starch; measuring method C
T8 construct: purchased Shin Nippon Kagaku Co., Ltd
T8 sequence (P10342 27-776): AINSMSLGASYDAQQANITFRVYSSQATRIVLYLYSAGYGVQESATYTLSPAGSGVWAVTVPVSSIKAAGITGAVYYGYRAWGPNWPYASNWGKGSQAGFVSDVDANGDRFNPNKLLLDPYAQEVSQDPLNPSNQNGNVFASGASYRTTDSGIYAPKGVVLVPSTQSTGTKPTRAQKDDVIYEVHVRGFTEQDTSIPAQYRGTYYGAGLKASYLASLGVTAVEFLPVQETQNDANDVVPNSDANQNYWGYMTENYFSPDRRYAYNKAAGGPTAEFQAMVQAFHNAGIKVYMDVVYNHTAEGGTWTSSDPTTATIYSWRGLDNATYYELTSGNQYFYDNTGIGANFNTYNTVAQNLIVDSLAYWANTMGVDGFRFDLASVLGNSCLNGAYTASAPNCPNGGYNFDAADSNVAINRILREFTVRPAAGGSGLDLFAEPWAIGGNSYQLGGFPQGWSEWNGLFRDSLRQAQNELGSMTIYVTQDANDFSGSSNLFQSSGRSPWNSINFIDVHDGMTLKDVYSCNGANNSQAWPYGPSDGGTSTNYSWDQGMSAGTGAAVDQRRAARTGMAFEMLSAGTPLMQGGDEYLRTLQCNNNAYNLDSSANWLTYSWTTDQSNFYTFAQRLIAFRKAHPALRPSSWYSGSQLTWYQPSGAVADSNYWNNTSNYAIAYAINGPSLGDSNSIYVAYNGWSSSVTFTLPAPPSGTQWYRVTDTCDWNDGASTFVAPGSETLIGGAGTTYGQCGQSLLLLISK
Experimental: as §1, §2, §3, §5

OC[C@H]1O[C@H](N=C2NC3C(O2)C(O)C(O)C3(O)CO)[C@H](O)[C@@H](O)[C@@H]1O (stereo partly drawn) [Trehalostatin]
Action (ID50) [1]: -
Action (ID50) (β-amylase (sweet potato)): -
Action (ID50) ([2]; enzyme 24 unit (nmol glucose/min), pH 5.5, 5 mM trehalase, measuring method A): ++ (ID50 ≤ 1.0 μg)
inhibitory effect against trehalase in insects ([2]; trehalase in insects, especially Aldrichina grahami, statement in words): effective inhibitory effect against trehalase in insects, especially in Aldrichina grahami, even at a very low concentration
Action (ID50) (exo-β-1,3-glucanase): -
Solubility ([3]; in hexane, benzene, ethers and petroleum ether): hardly or only slightly soluble
Solubility ([3]; in water): soluble in water
Action (ID50) (α-glycosidase (yeast)): + (ID50 ≥ 1.0 μg)
Action (ID50) (Trehalase (swine kidney)): + (ID50 ≥ 1.0 μg)
Action (ID50) [4]: -
Action (ID50) [5]: + (ID50 ≥ 1.0 μg)
Action (ID50) [6]: -
Action (ID50) [7]: + (ID50 ≥ 1.0 μg)
Action (ID50) [8]: -
Action (ID50) [9]: -
Action (ID50) [10]: + (ID50 ≥ 1.0 μg)
Action (ID50) (Taka-amylase A (yeast)): -
Action (ID50) [11]: -
Action (ID50) (Gluco amylase (almond)): -
Action (ID50) (Taka-amylase A): -
Action (ID50) (Isoamylase): -
